Here are results for one compound from patent US20190390170A1, “METHODS FOR MODULATING PRODUCTION PROFILES OF RECOMBINANT PROTEINS” (ARES TRADING S.A., priority 2016, published 2019).

For assay [1], the system named is CHO-S cells expressing a fusion protein P1. The assay can be described thus: Fed-batch culture of P1 cells with valeric acid (viable cell density, viability, titer). The assay is classed as cell-based, Chinese hamster. Here is the method:
Assays were performed with 2 CHO cell lines: • CHO-S cells expressing a fusion protein P1, herein “Cells P1” or “P1 cells”. “P1” is an IgG1 fusion protein, comprising one part directed against a membrane protein (IgG part) linked to a second part targeting a soluble immune protein. Its isoelectric point (pi) is about 6.3-7.0. • CHO-K1 cells expressing a monoclonal antibody P2, herein “Cells P2” or “P2 cells”. “P2” is a humanised monoclonal antibody directed against a receptor found on the cell membrane. Its isoelectric point (pi) is about 9.20-9.40. Cell expansion was performed in tubes in a medium suitable for cell expansion. Assays in fed-batch started after at least one week expansion. Cells expressing both P1 and P2 were inoculated at 0.2×10^6 viable cells per millilitre (mL). All assays were performed in fed-batch culture. The host cells were cultured in fed-batch system either in microplates (“Deep well plate”, “DWP”) or in Spin Tubes®, and incubated at 36.5° C., 90% relative humidity, 5% CO2 and 320 rpm shaking during 14 days. A stock solution of valeric acid was prepared in a standard production proprietary medium. The valeric acid concentration of this stock solution was 195 mM. The stock solution was used to supplement media to test different valeric acid concentrations from the beginning of the culture (day 0; tested concentrations: 1, 1.5 and 2 mM). The solution was also used like a feed to supplement the valeric acid to the culture at different time points during the fed-batch (day 3, 4, 5 or 7). When the solution was used like a feed, the target concentration in the culture was always 1.5 mM. Viable cell density and viability were measured with the Guava easyCyte® flow cytometer or with the ViCell. Antibody titres were measured with the fortéBIO Octet® or with Biacore C®.

Assay [2] concerns CHO-K1 cells expressing a monoclonal antibody P2. The assay can be described thus: Fed-batch culture of P2 cells with valeric acid (viable cell density, viability, titer). The assay is classed as cell-based, Chinese hamster. Here is the method:
Assays were performed with 2 CHO cell lines: • CHO-S cells expressing a fusion protein P1, herein “Cells P1” or “P1 cells”. “P1” is an IgG1 fusion protein, comprising one part directed against a membrane protein (IgG part) linked to a second part targeting a soluble immune protein. Its isoelectric point (pi) is about 6.3-7.0. • CHO-K1 cells expressing a monoclonal antibody P2, herein “Cells P2” or “P2 cells”. “P2” is a humanised monoclonal antibody directed against a receptor found on the cell membrane. Its isoelectric point (pi) is about 9.20-9.40. Cell expansion was performed in tubes in a medium suitable for cell expansion. Assays in fed-batch started after at least one week expansion. Cells expressing both P1 and P2 were inoculated at 0.2×10^6 viable cells per millilitre (mL). All assays were performed in fed-batch culture. The host cells were cultured in fed-batch system either in microplates (“Deep well plate”, “DWP”) or in Spin Tubes®, and incubated at 36.5° C., 90% relative humidity, 5% CO2 and 320 rpm shaking during 14 days. A stock solution of valeric acid was prepared in a standard production proprietary medium. The valeric acid concentration of this stock solution was 195 mM. The stock solution was used to supplement media to test different valeric acid concentrations from the beginning of the culture (day 0; tested concentrations: 1, 1.5 and 2 mM). The solution was also used like a feed to supplement the valeric acid to the culture at different time points during the fed-batch (day 3, 4, 5 or 7). When the solution was used like a feed, the target concentration in the culture was always 1.5 mM. Viable cell density and viability were measured with the Guava easyCyte® flow cytometer or with the ViCell. Antibody titres were measured with the fortéBIO Octet® or with Biacore C®. In this experiment the addition of 1.5 mM valeric acid to the culture on day 03, 04 or 05 was tested. For this experiment a CHO-k1 cell line (P2 cells) was used to confirm that valeric acid has the same effect than on CHO-S cells (P1 cells as discussed in a.).

The mark [3] stands for this setting: valeric acid in media on day 0 (1, 1.5 and 2 mM).
The mark [4] stands for this setting: 1.5 mM valeric acid added day 03, 04 or 05, until day 12.

Regarding `CCCCC(=O)O` [valeric acid], the “viability of the culture compared to control” value in assay [1] (1.5 mM valeric acid added as feed (day 3, 5 or 7), as of day 12) is “prolonged compared to the control runs”. Besides, the “cell viability compared to control” value in assay [1] (1.5 mM valeric acid added as feed (day 3, 5 or 7), until day 11) is given as “no impact on cell viability until day 11”; in assay [2] (setting [4]), “no impact on cell viability”. Besides, the “increase of titer compared to control” value in assay [1] (1.5 mM valeric acid added as feed at day 3, titer at day 12) is “about 20%”; in assay [1] (1.5 mM valeric acid added as feed at day 5, titer at day 12) it was “about 30%”; in assay [1] (1.5 mM valeric acid added as feed at day 7, titer at day 12), “about 20%”. Besides, in assay [1] (1.5 mM valeric acid added at day 3), the “cell growth rate compared to control” value was “slowed down”. For the same compound, the final titer result in assay [1] (setting [3]) is “not improved”. Further, in assay [1] (setting [3]), the “maximum viable cell density” value was “The higher the concentration, the lower the maximum viable cell density”. Further, the viability entry in assay [1] (setting [3]) is reported as “maintained longer than for control experiment”. The “impact on cell density and titer” value in assay [1] (valeric acid in the media on day 0) was “very negative impact on both cell density and titer”. Also, in assay [2] (1.5 mM valeric acid added day 03, 04 or 05, starting day 13), the “viability compared to control culture” value is “prolonged compared to the control culture”. In addition, in assay [2] (setting [4]), the “titer compared to control” value is “comparable to control”. Besides, the “maximum viable cell density compared to control” value in assay [2] (1.5 mM valeric acid added earlier during the culture (day 03, 04 or 05)) is “decreased”. The “titer increase compared to control” value in assay [2] (1.5 mM valeric acid at day 3, titer at day 17) is given as “about 25%”; in assay [2] (1.5 mM valeric acid at day 5, titer at day 17) it was “about 35%”; in assay [2] (1.5 mM valeric acid at day 7 (so in the source), titer at day 17), “about 25%”. In assay [2] (optimal valeric acid condition, after day 17 (data not shown), control 0.9 g/L), the titer obtained is roughly 5 g/L.
